Measurements from patent US10968227B2, “Isoquinoline ether compounds as mGluR4 allosteric potentiators, compositions, and methods of treating neurological dysfunction” (Vanderbilt University, priority 2016, dated 2021).
Converted amounts (≈) assume the structure as drawn.

How the values were obtained:
[1] = Rat brain fraction unbound; type: in vitro ADME; conditions: read-out: Rat Fu Brain
[2] = Human plasma fraction unbound; type: in vitro ADME; conditions: read-out: Human Fu Plasma
Brain-plasma partition = type: in vivo; conditions: rat; for unbound brain-to-plasma partition coefficient (Kp,uu): unbound brain-plasma ratio, read-out: Brain-Plasma Kp,ω
[3] = Rat plasma fraction unbound; type: in vitro ADME; conditions: read-out: Rat Fu Plasma
Kinetic solubility = type: physicochemical; conditions: kinetic from dmso stock
[4] = Rat intrinsic and hepatic clearance; type: in vitro ADME
[5] = Human intrinsic and hepatic clearance; type: in vitro ADME
2C9 = 2C9 (Homo sapiens (Human), UniProt P11712); assay: CYP 2C9 inhibition; type: in vitro ADME
1A2 = 1A2 (Homo sapiens (Human), UniProt P05177); assay: CYP 1A2 inhibition; type: in vitro ADME
2D6 = 2D6 (Homo sapiens (Human), UniProt P10635); assay: CYP 2D6 inhibition; type: in vitro ADME
3A4 = 3A4 (Homo sapiens (Human), UniProt P08684); assay: CYP 3A4 inhibition; type: in vitro ADME
Sequence of 3A4 (P08684 whole entry): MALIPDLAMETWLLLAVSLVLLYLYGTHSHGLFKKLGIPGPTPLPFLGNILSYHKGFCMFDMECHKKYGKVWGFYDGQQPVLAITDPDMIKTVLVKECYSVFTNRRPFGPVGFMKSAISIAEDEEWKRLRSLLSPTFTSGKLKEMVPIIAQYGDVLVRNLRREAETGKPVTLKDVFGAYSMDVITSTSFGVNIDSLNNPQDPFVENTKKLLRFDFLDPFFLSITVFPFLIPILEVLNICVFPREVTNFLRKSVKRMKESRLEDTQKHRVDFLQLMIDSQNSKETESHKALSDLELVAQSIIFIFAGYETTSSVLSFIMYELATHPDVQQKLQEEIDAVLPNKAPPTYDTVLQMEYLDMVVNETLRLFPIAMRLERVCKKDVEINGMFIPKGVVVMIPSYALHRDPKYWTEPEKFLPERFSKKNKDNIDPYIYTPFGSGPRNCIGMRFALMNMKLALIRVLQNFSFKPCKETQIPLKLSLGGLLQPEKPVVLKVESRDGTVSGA

Sequence of 2C9 (P11712 whole entry): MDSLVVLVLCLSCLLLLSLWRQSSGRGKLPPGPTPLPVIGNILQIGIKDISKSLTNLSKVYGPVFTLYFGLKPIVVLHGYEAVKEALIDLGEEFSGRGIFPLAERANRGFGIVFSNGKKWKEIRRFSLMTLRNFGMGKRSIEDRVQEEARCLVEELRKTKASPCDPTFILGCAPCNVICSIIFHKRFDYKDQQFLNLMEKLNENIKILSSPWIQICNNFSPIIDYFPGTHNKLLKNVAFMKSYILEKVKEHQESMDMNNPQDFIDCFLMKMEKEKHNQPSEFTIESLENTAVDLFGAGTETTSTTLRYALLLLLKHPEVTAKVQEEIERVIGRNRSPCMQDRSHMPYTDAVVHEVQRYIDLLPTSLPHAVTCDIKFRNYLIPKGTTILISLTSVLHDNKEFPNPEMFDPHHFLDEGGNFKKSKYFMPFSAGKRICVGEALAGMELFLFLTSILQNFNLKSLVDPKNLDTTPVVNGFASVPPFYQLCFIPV
Sequence of 2D6 (P10635 whole entry): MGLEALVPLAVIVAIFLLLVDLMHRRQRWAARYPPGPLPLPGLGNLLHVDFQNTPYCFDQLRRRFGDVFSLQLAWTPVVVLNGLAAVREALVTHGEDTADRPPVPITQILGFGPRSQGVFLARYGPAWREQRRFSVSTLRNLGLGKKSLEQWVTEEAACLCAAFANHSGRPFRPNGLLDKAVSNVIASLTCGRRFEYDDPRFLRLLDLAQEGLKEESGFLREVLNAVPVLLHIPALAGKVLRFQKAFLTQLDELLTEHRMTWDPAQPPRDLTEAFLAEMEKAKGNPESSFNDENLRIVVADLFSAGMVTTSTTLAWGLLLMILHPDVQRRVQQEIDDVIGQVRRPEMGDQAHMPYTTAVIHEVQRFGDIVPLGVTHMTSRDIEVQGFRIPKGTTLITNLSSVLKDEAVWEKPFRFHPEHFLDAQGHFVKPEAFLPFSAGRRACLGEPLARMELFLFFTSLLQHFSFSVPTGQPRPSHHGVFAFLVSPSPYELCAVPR
Sequence of 1A2 (P05177 whole entry): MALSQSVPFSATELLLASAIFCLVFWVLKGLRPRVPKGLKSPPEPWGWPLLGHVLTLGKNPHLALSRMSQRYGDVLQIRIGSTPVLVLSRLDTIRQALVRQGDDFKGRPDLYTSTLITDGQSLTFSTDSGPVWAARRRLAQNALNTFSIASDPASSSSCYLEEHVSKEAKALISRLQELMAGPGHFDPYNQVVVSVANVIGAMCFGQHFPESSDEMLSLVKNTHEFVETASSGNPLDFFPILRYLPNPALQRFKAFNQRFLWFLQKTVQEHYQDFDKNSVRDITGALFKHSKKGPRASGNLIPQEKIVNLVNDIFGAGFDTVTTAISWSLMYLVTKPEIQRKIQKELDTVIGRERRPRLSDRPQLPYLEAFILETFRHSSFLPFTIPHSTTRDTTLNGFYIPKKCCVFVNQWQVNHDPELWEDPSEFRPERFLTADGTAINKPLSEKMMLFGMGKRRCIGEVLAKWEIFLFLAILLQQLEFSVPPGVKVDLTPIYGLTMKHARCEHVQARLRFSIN

| SMILES | fraction unbound [1] | fraction unbound [2] | Kp (Brain-plasma partition) | unbound brain-to-plasma partition coefficient (Kp,uu) (Brain-plasma partition) | fraction unbound [3] | solubility kinetic (Kinetic solubility) [µM] | CLint scaled [4] [mL/min/kg] | Rat CLhep [4] [mL/min/kg] | CLint scaled [5] [mL/min/kg] | Human CLhep [5] [mL/min/kg] | IC50 (2C9) [µM] | IC50 (1A2) [µM] | IC50 (2D6) [µM] | IC50 (3A4) [µM] |
| --- | --- | --- | --- | --- | --- | --- | --- | --- | --- | --- | --- | --- | --- | --- |
| CO[C@H](C)COc1nccc2cc(Nc3n[nH]c4ncccc34)ccc12 [Compound 78] | 0.004 | 0.023 | 0.99 | 0.09 | 0.042 | – | – | – | – | – | – | – | – | – |
| c1cc2cc(Nc3n[nH]c4nccnc34)ccc2c(O[C@H]2CCOC2)n1 [Compound 59] | – | – | – | – | – | 2.6 ± 1.6 (≈ 0.906 µg/mL) | – | – | – | – | – | – | – | – |
| c1cnc2[nH]nc(Nc3ccc4c(O[C@@H]5CCOC5)nccc4c3)c2c1 [Compound 65] | 0.003 | 0.028 | 1.28 | 0.09 | 0.043 | – | – | – | – | – | – | – | – | – |
| CCOCCOc1nccc2cc(Nc3n[nH]c4ncccc34)ccc12 [Compound 75] | 0.004 | 0.021 | 1 | 0.13 | 0.031 | – | 456 | 60.7 | 71.8 | 16.2 | – | – | – | – |
| CCOCCOc1nccc2cc(Nc3n[nH]c4cccnc34)ccc12 [Compound 69] | 0.005 | 0.017 | 1.23 | 0.27 | 0.023 | 9.9 ± 2.7 (≈ 3.46 µg/mL) | – | – | – | – | – | – | – | – |
| Fc1cnc2c(Nc3ccc4c(O[C@H]5CCOC5)nccc4c3)n[nH]c2c1 [Compound 95] | – | – | – | – | – | 0.4 (≈ 0.146 µg/mL) | 127 | 45.1 | 40.3 | 13.6 | – | – | – | – |
| c1cnc2[nH]nc(Nc3ccc4c(OCC5CCOCC5)nccc4c3)c2c1 [Compound 77] | 0.002 | 0.013 | 1.59 | 0.4 | 0.008 | – | – | – | – | – | – | – | – | – |
| COCCOc1nccc2cc(Nc3n[nH]c4nccnc34)ccc12 [Compound 81] | 0.015 | 0.032 | 0.4 | 0.13 | 0.048 | 0.9 ± 0.2 (≈ 0.303 µg/mL) | 74.4 | 36.1 | 38.5 | 13.6 | > 30 | 0.79 | > 30 | > 30 |
| c1cnc2c(Nc3ccc4c(O[C@@H]5CCCOC5)nccc4c3)n[nH]c2c1 [Compound 62] | 0.004 | 0.017 | 3.38 | 0.36 | 0.038 | 10.3 ± 1.1 (≈ 3.72 µg/mL) | 461 | 60.8 | 58.3 | 15.4 | 3.96 | 6.32 | 27.8 | 4.76 |
| c1cnc2[nH]nc(Nc3ccc4c(OCC5CCCCO5)nccc4c3)c2c1 (centres unmarked) [Compound 76] | 0.001 | 0.008 | 1.27 | 0.13 | 0.01 | – | – | – | – | – | – | – | – | – |
| c1cnc2c(Nc3ccc4c(OCCN5CCOCC5)nccc4c3)n[nH]c2c1 [Compound 93] | – | – | – | – | – | 20.5 ± 2.1 (≈ 8 µg/mL) | 718 | 63.8 | 136 | 18.2 | – | – | – | – |
| c1cnc2c(Nc3ccc4c(OCC5CCOC5)nccc4c3)n[nH]c2c1 (centres unmarked) [Compound 71] | 0.003 | 0.015 | 0.8 | 0.1 | 0.024 | – | 151 | 47.8 | 41.1 | 13.9 | 4.59 | 8.48 | 19.7 | 15.4 |
| c1cnc2c(Nc3ccc4c(OCC5CCOCC5)nccc4c3)n[nH]c2c1 [Compound 68] | 0.001 | 0.008 | 1.06 | 0.12 | 0.009 | – | – | – | – | – | – | – | – | – |
| c1cnc2[nH]nc(Nc3ccc4c(OCC5CCOC5)nccc4c3)c2c1 (centres unmarked) [Compound 79] | 0.002 | 0.018 | 1.5 | 0.16 | 0.019 | < 0.4 | – | – | – | – | – | – | – | – |
